{
  "source": "patent US8192962B2",
  "about": "“Processes for detecting toxic substances” (Daikin Industries, Ltd., priority 2001, dated 2012)",
  "system": "Genes belonging to other category",
  "assay": "DNA chip mRNA expression in yeast, genes belonging to other category (Table 9)",
  "format": "cell-based, Saccharomyces cerevisiae S288C",
  "experimental": "Yeast (Saccharomyces cerevisiae S288C (α SUC2mal mel gap2 CUP1)) were incubated at 25° C. on YPD medium (yeast extract 1%, polypepton 2%, glucose 2%). One of toxic chemical substances was added to the cells at logarithmic growth phase, and the cells were further incubated for two hours. Cells were cultured without any chemical substance in the same condition, and were used as control. Concentrations of the chemical substances were defined to inhibit the growth of the yeast but not lead to death.\nAfter completion of the incubation, the culture was centrifuged to collect the cells. To the cells, sodium acetate buffer (50 mM sodium acetate, 10 mM EDTA, 1% SDS) was added, and the mixture was shaken at 65° C. for five minutes, followed by returning to room temperature, and obtaining the supernatant, of which the procedures were repeated two times. To the supernatant, ½ amount of a solution of phenol/chloroform was added, and the mixture was centrifuged to give a supernatant, which was added with an equal amount of chloroform, and the mixture was centrifuged to give a supernatant. To the supernatant, an equal amount of isopropanol containing 0.3 M sodium acetate was added, and the mixture was allowed to stand at room temperature for 30 minutes, after which the mixture was centrifuged to give a sediment of the whole RNAs. Seventy % ethanol was added to the sediment, and the mixture was again centrifuged to give a sediment, which was then dried and dissolved in water. mRNA was isolated from the whole RNAs as followings. In view of the fact that a poly A chain is attached to the 3′ terminus of mRNA, a polynucleotide having a poly T structure which was immobilized on the surface of latex beads was used to trap the mRNA, and then the mRNA was washed and eluted with spine column (Oligotex-dT30<Super>mRNA Purification Kit, Takara). Reverse transcription of the mRNA was conducted with a reverse transcriptase (Super Script II Reverse Transcriptase; catalogue No. 18064-014, GibcoBRL) using fluorescence-labeled nucleotides to give cDNAs that were introduced with Cy3-dUTP or Cy5-dUTP during the reverse transcription.\nThe labeled cDNAs were dissolved in TE buffer (10mM Tris-HCl/1 mM EDTA, pH8.0), and the solution was dropped on the DNA chip containing the whole genes of yeast (DNA Chip Research Inc. Japan) so that the cDNAs were hybridized on the DNA chip at 65° C. for over 12 hours. The fluoresces intensity of the DNA chip was read with a scanner, and the ratio relative to the fluorescence intensity resulting from the absence of chemical substance was estimated as the following, which is shown in Tables 1 to 9: […]",
  "data": [
    {"smiles": "C=CC=O", "note": "[(14), acrolein]", "values": [
      {"measurement": "The level of expressed mRNA in the presence of chemical substance/The level of expressed mRNA in the absence of chemical substance", "setting": "yeast gene YDR432W", "value": 0.5},
      {"measurement": "The level of expressed mRNA in the presence of chemical substance/The level of expressed mRNA in the absence of chemical substance", "setting": "yeast gene YDR481C", "value": 0.9},
      {"measurement": "The level of expressed mRNA in the presence of chemical substance/The level of expressed mRNA in the absence of chemical substance", "setting": "yeast gene YDR510W", "value": 1.9},
      {"measurement": "The level of expressed mRNA in the presence of chemical substance/The level of expressed mRNA in the absence of chemical substance", "setting": "yeast gene YEL042W", "value": 0.6},
      {"measurement": "The level of expressed mRNA in the presence of chemical substance/The level of expressed mRNA in the absence of chemical substance", "setting": "yeast gene YEL066W", "value": 1.9},
      {"measurement": "The level of expressed mRNA in the presence of chemical substance/The level of expressed mRNA in the absence of chemical substance", "setting": "yeast gene YER009W", "value": 1.6},
      {"measurement": "The level of expressed mRNA in the presence of chemical substance/The level of expressed mRNA in the absence of chemical substance", "setting": "yeast gene YER021W", "value": 1.3},
      {"measurement": "The level of expressed mRNA in the presence of chemical substance/The level of expressed mRNA in the absence of chemical substance", "setting": "yeast gene YER025W", "value": 2.1},
      {"measurement": "The level of expressed mRNA in the presence of chemical substance/The level of expressed mRNA in the absence of chemical substance", "setting": "yeast gene YER039C", "value": 1.2},
      {"measurement": "The level of expressed mRNA in the presence of chemical substance/The level of expressed mRNA in the absence of chemical substance", "setting": "yeast gene YER072W", "value": 1.5},
      {"measurement": "The level of expressed mRNA in the presence of chemical substance/The level of expressed mRNA in the absence of chemical substance", "setting": "yeast gene YER107C", "value": 1.1},
      {"measurement": "The level of expressed mRNA in the presence of chemical substance/The level of expressed mRNA in the absence of chemical substance", "setting": "yeast gene YER130C", "value": 0.8},
      {"measurement": "The level of expressed mRNA in the presence of chemical substance/The level of expressed mRNA in the absence of chemical substance", "setting": "yeast gene YER177W", "value": 0.9},
      {"measurement": "The level of expressed mRNA in the presence of chemical substance/The level of expressed mRNA in the absence of chemical substance", "setting": "yeast gene YFL022C", "value": 3.1},
      {"measurement": "The level of expressed mRNA in the presence of chemical substance/The level of expressed mRNA in the absence of chemical substance", "setting": "yeast gene YFL028C", "value": 1.6},
      {"measurement": "The level of expressed mRNA in the presence of chemical substance/The level of expressed mRNA in the absence of chemical substance", "setting": "yeast gene YFL043C", "value": 1.5},
      {"measurement": "The level of expressed mRNA in the presence of chemical substance/The level of expressed mRNA in the absence of chemical substance", "setting": "yeast gene YFR014C", "value": 1.0},
      {"measurement": "The level of expressed mRNA in the presence of chemical substance/The level of expressed mRNA in the absence of chemical substance", "setting": "yeast gene YFR050C", "value": 1.6},
      {"measurement": "The level of expressed mRNA in the presence of chemical substance/The level of expressed mRNA in the absence of chemical substance", "setting": "yeast gene YGL094C", "value": 0.9},
      {"measurement": "The level of expressed mRNA in the presence of chemical substance/The level of expressed mRNA in the absence of chemical substance", "setting": "yeast gene YGL150C", "value": 1.0},
      {"measurement": "The level of expressed mRNA in the presence of chemical substance/The level of expressed mRNA in the absence of chemical substance", "setting": "yeast gene YGL158W", "value": 2.3},
      {"measurement": "The level of expressed mRNA in the presence of chemical substance/The level of expressed mRNA in the absence of chemical substance", "setting": "yeast gene YGL185C", "value": 1.5},
      {"measurement": "The level of expressed mRNA in the presence of chemical substance/The level of expressed mRNA in the absence of chemical substance", "setting": "yeast gene YGL229C", "value": 1.0},
      {"measurement": "The level of expressed mRNA in the presence of chemical substance/The level of expressed mRNA in the absence of chemical substance", "setting": "yeast gene YGR036C", "value": 1.0},
      {"measurement": "The level of expressed mRNA in the presence of chemical substance/The level of expressed mRNA in the absence of chemical substance", "setting": "yeast gene YGR120C", "value": 1.0},
      {"measurement": "The level of expressed mRNA in the presence of chemical substance/The level of expressed mRNA in the absence of chemical substance", "setting": "yeast gene YGR131W", "value": 2.0},
      {"measurement": "The level of expressed mRNA in the presence of chemical substance/The level of expressed mRNA in the absence of chemical substance", "setting": "yeast gene YGR136W", "value": 1.1},
      {"measurement": "The level of expressed mRNA in the presence of chemical substance/The level of expressed mRNA in the absence of chemical substance", "setting": "yeast gene YGR189C", "value": 0.9},
      {"measurement": "The level of expressed mRNA in the presence of chemical substance/The level of expressed mRNA in the absence of chemical substance", "setting": "yeast gene YGR213C", "value": 1.0},
      {"measurement": "The level of expressed mRNA in the presence of chemical substance/The level of expressed mRNA in the absence of chemical substance", "setting": "yeast gene YGR232W", "value": 2.1},
      {"measurement": "The level of expressed mRNA in the presence of chemical substance/The level of expressed mRNA in the absence of chemical substance", "setting": "yeast gene YGR239C", "value": 1.4},
      {"measurement": "The level of expressed mRNA in the presence of chemical substance/The level of expressed mRNA in the absence of chemical substance", "setting": "yeast gene YGR257C", "value": 0.9},
      {"measurement": "The level of expressed mRNA in the presence of chemical substance/The level of expressed mRNA in the absence of chemical substance", "setting": "yeast gene YHR004C", "value": 0.8},
      {"measurement": "The level of expressed mRNA in the presence of chemical substance/The level of expressed mRNA in the absence of chemical substance", "setting": "yeast gene YHR071W", "value": 1.6},
      {"measurement": "The level of expressed mRNA in the presence of chemical substance/The level of expressed mRNA in the absence of chemical substance", "setting": "yeast gene YHR109W", "value": 1.5},
      {"measurement": "The level of expressed mRNA in the presence of chemical substance/The level of expressed mRNA in the absence of chemical substance", "setting": "yeast gene YHR139C", "value": 2.5},
      {"measurement": "The level of expressed mRNA in the presence of chemical substance/The level of expressed mRNA in the absence of chemical substance", "setting": "yeast gene YHR142W", "value": 1.2},
      {"measurement": "The level of expressed mRNA in the presence of chemical substance/The level of expressed mRNA in the absence of chemical substance", "setting": "yeast gene YHR161C", "value": 1.0},
      {"measurement": "The level of expressed mRNA in the presence of chemical substance/The level of expressed mRNA in the absence of chemical substance", "setting": "yeast gene YHR163W", "value": 1.5},
      {"measurement": "The level of expressed mRNA in the presence of chemical substance/The level of expressed mRNA in the absence of chemical substance", "setting": "yeast gene YHR169W", "value": 1.1},
      {"measurement": "The level of expressed mRNA in the presence of chemical substance/The level of expressed mRNA in the absence of chemical substance", "setting": "yeast gene YHR171W", "value": 1.0},
      {"measurement": "The level of expressed mRNA in the presence of chemical substance/The level of expressed mRNA in the absence of chemical substance", "setting": "yeast gene YIL010W", "value": 1.7},
      {"measurement": "The level of expressed mRNA in the presence of chemical substance/The level of expressed mRNA in the absence of chemical substance", "setting": "yeast gene YIL034C", "value": 1.1},
      {"measurement": "The level of expressed mRNA in the presence of chemical substance/The level of expressed mRNA in the absence of chemical substance", "setting": "yeast gene YIL076W", "value": 1.4},
      {"measurement": "The level of expressed mRNA in the presence of chemical substance/The level of expressed mRNA in the absence of chemical substance", "setting": "yeast gene YIL123W", "value": 0.3},
      {"measurement": "The level of expressed mRNA in the presence of chemical substance/The level of expressed mRNA in the absence of chemical substance", "setting": "yeast gene YIL140W", "value": 0.9},
      {"measurement": "The level of expressed mRNA in the presence of chemical substance/The level of expressed mRNA in the absence of chemical substance", "setting": "yeast gene YIL142W", "value": 1.0}
    ]}
  ]
}
